Among the test systems are Malme-3M; UACC-257; HCT-116; NCI-H23; COLO 205; MDA-MB-435; IGROV-1; U-251; EKVX; M14; SF-295; A498; HOP-92; HOP-62; SK-MEL-5; SK-OV-3; HT-29; SK-MEL-2; SR; DU-145.
Common to all, as to assay: NCI-60 cell line screen, 48 h

From ChEMBL document CHEMBL1201862, “PubChem BioAssay data set” (2004) come the findings set out here.

Each structure is given as a SMILES string.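 Five compound concentrations were applied to cells in 96-well plates for 48 hours; endpoints were derived by simple linear interpolation of the resulting dose-response curve. Abbreviation: GI50, concentration required for 50% inhibition of growth.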 Calls of active or inactive are those of the source. Cut-off read from the data, not from the text of the source: active = GI50 up to about 1.1 µM and inactive = higher. Where only a bound is given, the exact number is not on record here.

In the case of `c1ccc(C(c2cccc3c2ccc2ccccc23)C(c2ccccc2)c2cccc3c2ccc2ccccc23)cc1` (stereo not given), the GI50 with Malme-3M, with UACC-257, with HCT-116, in the assay with NCI-H23, in the assay on COLO 205 and in the assay on MDA-MB-435 was > 100 µM (inactive) in each case. Moreover, the GI50 with IGROV-1, in the assay with U-251, in the assay on EKVX, in the assay on M14, in the assay with SF-295 and with A498 was > 100 µM (inactive) throughout. Besides, the GI50 in the assay on HOP-92, in the assay on HOP-62, in the assay with SK-MEL-5, in the assay with SK-OV-3, in the assay with HT-29 and in the assay on SK-MEL-2 was > 100 µM (inactive) throughout. For the same compound, the GI50 with SR and in the assay with DU-145 was > 100 µM (inactive) in each case.

In the case of `COCC(=O)[C@]1(O)Cc2c(O)c3c(c(O)c2[C@@H](OC2CC(N)C(O)C(C)O2)C1)C(=O)c1c(OC)cccc1C3=O` (stereo not given in full), the GI50 in the assay on Malme-3M is 0.105 µM (active); in the assay on UACC-257 it was 0.299 µM (active); in the assay on HCT-116, 0.0493 µM (active); with NCI-H23, 0.0536 µM (active); with COLO 205, 0.168 µM (active); with MDA-MB-435 it was 0.188 µM (active). For the same compound, the GI50 in the assay with IGROV-1 was 0.136 µM (active); in the assay with U-251, 0.0836 µM (active); in the assay on EKVX, 0.455 µM (active); in the assay with M14, 0.0927 µM (active); in the assay with SF-295, 0.0296 µM (active); in the assay on A498 it was 0.104 µM (active). Besides, the GI50 was 0.13 µM (active) in the assay with HOP-92; 0.11 µM (active) with HOP-62; 0.0728 µM (active) in the assay on SK-MEL-5; 0.254 µM (active) in the assay on SK-OV-3; 0.0192 µM (active) in the assay with HT-29; 0.121 µM (active) with SK-MEL-2. Further, the GI50 in the assay with SR is < 0.0138 µM (active); in the assay on DU-145, 0.0991 µM (active).

With `CCOC(=O)NC(Nc1ccc(C(=O)O)cc1)(C(F)(F)F)C(F)(F)F`, the GI50 in the assay on Malme-3M, in the assay with UACC-257, with HCT-116, in the assay on NCI-H23, in the assay with COLO 205 and in the assay on MDA-MB-435 was > 100 µM (inactive) each time. Besides, the GI50 in the assay with IGROV-1, in the assay on U-251, in the assay on EKVX, with M14, with SF-295 and with A498 was > 100 µM (inactive) throughout. In addition, the GI50 in the assay on HOP-92, in the assay with HOP-62, in the assay on SK-MEL-5, in the assay on SK-OV-3, in the assay on HT-29 and in the assay on SK-MEL-2 was > 100 µM (inactive) in each case. In addition, the GI50 with SR and with DU-145 was > 100 µM (inactive) in each case.

As to `CC(=O)NC(Cc1ccccc1)NC(=O)O` (stereo not given), the GI50 in the assay with Malme-3M, in the assay with UACC-257, in the assay on HCT-116, in the assay with NCI-H23, with COLO 205 and with MDA-MB-435 was > 100 µM (inactive) throughout. Besides, the GI50 in the assay with IGROV-1, in the assay with U-251, with EKVX, in the assay on M14, in the assay with SF-295 and in the assay on A498 was > 100 µM (inactive) throughout. Further, the GI50 in the assay on HOP-92, in the assay with HOP-62, with SK-MEL-5, with SK-OV-3, in the assay on HT-29 and in the assay with SK-MEL-2 was > 100 µM (inactive) throughout. Further, the GI50 in the assay with SR and with DU-145 was > 100 µM (inactive) in each case.

Turning to `CC(C)=CC(Cc1ccccc1)S(=O)(=O)c1nc2ccccc2s1` (stereo not given), the GI50 is 14.5 µM (inactive) in the assay with Malme-3M; 21 µM (inactive) in the assay with UACC-257; 14 µM (inactive) with HCT-116; 13.5 µM (inactive) with NCI-H23; 17 µM (inactive) with COLO 205; 11 µM (inactive) in the assay with MDA-MB-435. Moreover, the GI50 in the assay on IGROV-1 was 19.7 µM (inactive); in the assay on U-251, 15.9 µM (inactive); in the assay with EKVX it was 19.6 µM (inactive); in the assay with M14, 12.5 µM (inactive); in the assay on SF-295, 26.6 µM (inactive); with A498 it was 19.9 µM (inactive). Further, the GI50 was 16.6 µM (inactive) in the assay on HOP-92; 28.8 µM (inactive) with HOP-62; 13.6 µM (inactive) in the assay on SK-MEL-5; 22.4 µM (inactive) in the assay with SK-OV-3; 19.3 µM (inactive) in the assay with HT-29; 13.1 µM (inactive) in the assay on SK-MEL-2. The GI50 with SR was 1.98 µM (inactive); in the assay on DU-145 it was 17.7 µM (inactive).

For the compound `CNc1ccc2nc(-c3ccc(OC(=O)N(C)C)cc3)cn2c1`, the GI50 in the assay on Malme-3M is 54.3 µM (inactive); in the assay on UACC-257 it was 50.4 µM (inactive); in the assay with HCT-116 it was 18.3 µM (inactive); in the assay with NCI-H23, 21.2 µM (inactive); in the assay on COLO 205, 17.1 µM (inactive); in the assay with MDA-MB-435, 17 µM (inactive). The GI50 with IGROV-1 is 17.9 µM (inactive); in the assay with U-251, 15.5 µM (inactive); in the assay on EKVX it was 19.3 µM (inactive); in the assay on M14, 19.2 µM (inactive); with SF-295 it was 17.7 µM (inactive); with A498, 17.5 µM (inactive). In addition, the GI50 is 22.6 µM (inactive) with HOP-92; 18.8 µM (inactive) in the assay with HOP-62; 23.1 µM (inactive) in the assay on SK-MEL-5; 19 µM (inactive) in the assay on SK-OV-3; 17.7 µM (inactive) with HT-29; 14 µM (inactive) in the assay on SK-MEL-2. In addition, the values for the GI50 in the assay with SR and with DU-145 were 19.1 µM (inactive) and 24.3 µM (inactive), respectively.

Take `C=C1CCN2CC[C@@H](OC(=O)/C(C)=C\C)[C@@H]12`: the GI50 in the assay with Malme-3M, in the assay on UACC-257, in the assay with HCT-116, with NCI-H23, in the assay with COLO 205 and in the assay with MDA-MB-435 was > 100 µM (inactive) throughout. Also, the GI50 in the assay on IGROV-1, in the assay with U-251, in the assay on EKVX, with M14, in the assay with SF-295 and in the assay with A498 was > 100 µM (inactive) in each case. In addition, the GI50 with HOP-92 is > 100 µM (inactive); in the assay on HOP-62, > 100 µM (inactive); with SK-MEL-5 it was > 100 µM (inactive); in the assay with SK-OV-3, > 100 µM (inactive); in the assay with HT-29, 66.2 µM (inactive); with SK-MEL-2 it was > 100 µM (inactive). In addition, the GI50 in the assay with SR and in the assay on DU-145 was > 100 µM (inactive) each time.

`CCOC(=O)CN1C(=O)c2c(NC(=O)C(=O)O)cccc2S1(=O)=O`: the GI50 with Malme-3M, in the assay on UACC-257, with HCT-116, in the assay with NCI-H23, with COLO 205 and in the assay with MDA-MB-435 was > 100 µM (inactive) in each case. Also, the GI50 with IGROV-1, with U-251, in the assay with EKVX, in the assay with M14, with SF-295 and in the assay on A498 was > 100 µM (inactive) each time. In addition, the GI50 in the assay on HOP-92, in the assay on HOP-62, in the assay with SK-MEL-5, in the assay on SK-OV-3, in the assay on HT-29 and in the assay with SK-MEL-2 was > 100 µM (inactive) in each case. Moreover, the GI50 in the assay on SR and in the assay on DU-145 was > 100 µM (inactive) throughout.

Regarding `COC1OC(COC(=O)c2cc(O)c(O)c(O)c2)C(OC(=O)c2cc(O)c(O)c(O)c2)C(OC(=O)c2cc(O)c(O)c(O)c2)C1OC(=O)c1cc(O)c(O)c(O)c1` (stereo not given), the GI50 in the assay with Malme-3M is 27.9 µM (inactive); with UACC-257 it was > 100 µM (inactive); in the assay on HCT-116, 33 µM (inactive); in the assay with NCI-H23, 78.5 µM (inactive); in the assay with COLO 205 it was 39.4 µM (inactive); with MDA-MB-435, 12.9 µM (inactive). Moreover, the GI50 in the assay on IGROV-1 was 27.4 µM (inactive); with U-251, 10.6 µM (inactive); in the assay on EKVX, 25.9 µM (inactive); in the assay on M14 it was 13.1 µM (inactive); in the assay with SF-295 it was 34.9 µM (inactive); in the assay on A498 it was 1.77 µM (inactive). The GI50 is 74 µM (inactive) in the assay with HOP-92; 7.33 µM (inactive) in the assay on HOP-62; 13.3 µM (inactive) in the assay on SK-MEL-5; 4.78 µM (inactive) with SK-OV-3; 33.5 µM (inactive) with HT-29; > 100 µM (inactive) in the assay on SK-MEL-2. Besides, the GI50 was 11.1 µM (inactive) in the assay on SR and 69.5 µM (inactive) in the assay on DU-145.

For `O=P1(O)C=CC2(CCCC2)O1`, the GI50 in the assay with Malme-3M, in the assay with UACC-257, with HCT-116, with NCI-H23, in the assay on COLO 205 and with MDA-MB-435 was > 100 µM (inactive) each time. Further, the GI50 in the assay with IGROV-1, with U-251, in the assay with EKVX, in the assay with M14, with SF-295 and in the assay on A498 was > 100 µM (inactive) throughout. Further, the GI50 in the assay on HOP-92, with HOP-62, in the assay on SK-MEL-5, in the assay with SK-OV-3, in the assay on HT-29 and with SK-MEL-2 was > 100 µM (inactive) each time. In addition, the GI50 in the assay on SR and with DU-145 was > 100 µM (inactive) each time.
